The values below come from patent US8546608B2, “Proteasome inhibitors and methods of using the same” (Cephalon, Inc., priority 2003, dated 2013).

The target in assay [1] is T1, 20S Human Erythrocyte Proteasome (HEP) (Homo sapiens, UniProt P20618+P28074).
T1 construct: 20S Human Erythrocyte Proteasome (HEP), purchased from Immatics Biotechnologies Inc; purchased Immatics Biotechnologies Inc., Tübingen, Germany; host or cells: human erythrocytes (natural source)
The assay is described as follows: Chymotrypsin-like activity of 20S Human Erythrocyte Proteasome (HEP), IC50 determination. Format: biochemical. Conditions: assay of Example C, inhibition of HEP. Summed up: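 20S proteasome at 0.2 μg/mL (about 0.6 nM catalytic sites) in 20 mM Tris with 0.04% SDS, preincubated 15 min at 37° C with inhibitor before Suc-LLVY-AMC (100 μM final). AMC fluorescence read in the linear range; triplicates, IC50 from concentration series.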

Assay [2] has as its target T2, proteasome in Molt-4 cells (human leukemia) (Homo sapiens, UniProt P20618+P28074).
T2 sequence (P28074 60-263): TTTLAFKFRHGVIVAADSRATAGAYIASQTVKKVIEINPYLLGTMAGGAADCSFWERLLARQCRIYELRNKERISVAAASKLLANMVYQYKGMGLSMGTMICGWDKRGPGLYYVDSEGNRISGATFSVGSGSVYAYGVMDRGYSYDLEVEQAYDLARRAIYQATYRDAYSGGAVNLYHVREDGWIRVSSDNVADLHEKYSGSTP
T2 sequence (P20618 29-241): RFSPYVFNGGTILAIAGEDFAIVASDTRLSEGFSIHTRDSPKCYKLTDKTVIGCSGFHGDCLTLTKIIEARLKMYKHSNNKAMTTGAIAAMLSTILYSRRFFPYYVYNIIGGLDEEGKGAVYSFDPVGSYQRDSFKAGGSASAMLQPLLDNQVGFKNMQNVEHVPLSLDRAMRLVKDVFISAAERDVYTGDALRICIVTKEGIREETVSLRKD
The assay is classed as cell-based. Conditions: assay of Example E, inhibition of MOLT4; read-out: MOLT4 (EC50). Summed up:
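Intact Molt-4 cells (6×10^6 cells/mL) in HEPES-buffered saline were preincubated with inhibitor 15 min at 37 °C, then given cell-permeable MeOSuc-FLF-AFC at 25 μM final.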

Molecules are shown by their SMILES.

`Cc1cccc(/C=C/C(=O)N[C@@H](CCCNC(=N)N[N+](=O)[O-])C(=O)N[C@@H](CC(C)C)B2O[C@@H]3C[C@@H]4C[C@@H](C4(C)C)[C@]3(C)O2)c1` [D.3.57, 3-(3-Methylphenyl)acrylamide,N-[(1S)-1-[[[(1R)-1-[(3aS,4S,6S,7aR)-hexahydro-3a,5,5-trimethyl-4,6-methano-1,3,2-benzodioxaborol-2-yl]-3-methylbutyl]amino]carbonyl]-4-[[imino(nitroamino)methyl]amino]butyl]]: in assay [1], the IC50 (as a rule, the point on the concentration scale where inhibition reaches its midpoint) was under 10 nM. For the same compound, the EC50 (usually the concentration that produces a half-maximal response) in assay [2] was under 200 nM.

As to `CC(C)C[C@H](NC(=O)[C@H](CCCNC(=N)N[N+](=O)[O-])NC(=O)CC12CC3CC(CC(C3)C1)C2)B1O[C@@H]2C[C@@H]3C[C@@H](C3(C)C)[C@]2(C)O1` [D.3.58, 2-Adamantan-1-ylacetamide,N-[(1S)-1-[[[(1R)-1-[(3aS,4S,6S,7aR)-hexahydro-3a,5,5-trimethyl-4,6-methano-1,3,2-benzodioxaborol-2-yl]-3-methylbutyl]amino]carbonyl]-4-[[imino(nitroamino)methyl]amino]butyl]], the IC50 in assay [1] is under 10 nM. For the same compound, the EC50 in assay [2] was under 200 nM.

Consider `Cc1ccc(/C=C/C(=O)N[C@@H](CCCNC(=N)N[N+](=O)[O-])C(=O)N[C@@H](CC(C)C)B2O[C@@H]3C[C@@H]4C[C@@H](C4(C)C)[C@]3(C)O2)cc1` [D.3.62, 3-(4-Methylphenyl)acrylamide,N-[(1S)-1-[[[(1R)-1-[(3aS,4S,6S,7aR)-hexahydro-3a,5,5-trimethyl-4,6-methano-1,3,2-benzodioxaborol-2-yl]-3-methylbutyl]amino]carbonyl]-4-[[imino(nitroamino)methyl]amino]butyl]], for which the IC50 in assay [1] was under 10 nM. In assay [2], the EC50 was under 200 nM.

In assay [1], `CC(C)C[C@H](NC(=O)[C@H](CCCNC(=N)N[N+](=O)[O-])NC(=O)c1ccc(-n2cccc2)cc1)B1O[C@@H]2C[C@@H]3C[C@@H](C3(C)C)[C@]2(C)O1` [D.3.64, 4-Pyrrol-1-yl-benzamide,N-[(1S)-1-[[[(1R)-1-[(3aS,4S,6S,7aR)-hexahydro-3a,5,5-trimethyl-4,6-methano-1,3,2-benzodioxaborol-2-yl]-3-methylbutyl]amino]carbonyl]-4-[[imino(nitroamino)methyl]amino]butyl]] displayed an IC50 of under 10 nM. The 50% effective concentration (EC50) in assay [2] is under 200 nM.

In assay [1], `CCCC/C=C/C(=O)N[C@@H](CCCNC(=N)N[N+](=O)[O-])C(=O)N[C@@H](CC(C)C)B1O[C@@H]2C[C@@H]3C[C@@H](C3(C)C)[C@]2(C)O1` [D.3.66, Hept-2-enamide,N-[(1S)-1-[[[(1R)-1-[(3aS,4S,6S,7aR)-hexahydro-3a,5,5-trimethyl-4,6-methano-1,3,2-benzodioxaborol-2-yl]-3-methylbutyl]amino]carbonyl]-4-[[imino(nitroamino)methyl]amino]butyl]] displayed an IC50 of under 10 nM. For the same compound, the EC50 in assay [2] was under 200 nM.

`Cc1ccc(OCC(=O)N[C@@H](CCCNC(=N)N[N+](=O)[O-])C(=O)N[C@@H](CC(C)C)B2O[C@@H]3C[C@@H]4C[C@@H](C4(C)C)[C@]3(C)O2)cc1C` [D.3.67, 2-(3,4-Dimethylphenoxy)acetamide,N-[(1S)-1-[[[(1R)-1-[(3aS,4S,6S,7aR)-hexahydro-3a,5,5-trimethyl-4,6-methano-1,3,2-benzodioxaborol-2-yl]-3-methylbutyl]amino]carbonyl]-4-[[imino(nitroamino)methyl]amino]butyl]] showed an IC50 in assay [1] of under 10 nM. Besides, the EC50 in assay [2] was under 200 nM.

On to `CCCCCC/C=C/CC(=O)N[C@@H](CCCNC(=N)N[N+](=O)[O-])C(=O)N[C@@H](CC(C)C)B1O[C@@H]2C[C@@H]3C[C@@H](C3(C)C)[C@]2(C)O1` [D.3.70, (E)-Dec-3-enoic acid amide,N-[(1S)-1-[[[(1R)-1-[(3aS,4S,6S,7aR)-hexahydro-3a,5,5-trimethyl-4,6-methano-1,3,2-benzodioxaborol-2-yl]-3-methylbutyl]amino]carbonyl]-4-[[imino(nitroamino)methyl]amino]butyl]], for which, in assay [1], the IC50 was under 10 nM. The EC50 in assay [2] is under 200 nM.

For `CC(C)C[C@H](NC(=O)[C@H](CCCNC(=N)N[N+](=O)[O-])NC(=O)CCCCC1CCCCC1)B1O[C@@H]2C[C@@H]3C[C@@H](C3(C)C)[C@]2(C)O1` [D.3.73], in assay [1], the IC50 was under 10 nM. In addition, the EC50 in assay [2] was under 200 nM.

Turning to `CC(C)=CCC[C@@H](C)CC(=O)N[C@@H](CCCNC(=N)N[N+](=O)[O-])C(=O)N[C@@H](CC(C)C)B1O[C@@H]2C[C@@H]3C[C@@H](C3(C)C)[C@]2(C)O1` [D.3.75, (3R)-3,7-Dimethyl-oct-6-enoic acid amide,N-[(1S)-1-[[[(1R)-1-[(3aS,4S,6S,7aR)-hexahydro-3a,5,5-trimethyl-4,6-methano-1,3,2-benzodioxaborol-2-yl]-3-methylbutyl]amino]carbonyl]-4-[[imino(nitroamino)methyl]amino]butyl]], the IC50 in assay [1] was under 10 nM. In addition, in assay [2], the EC50 is under 200 nM.

`CCOc1ccc(C(=O)N[C@@H](CCCNC(=N)N[N+](=O)[O-])C(=O)N[C@@H](CC(C)C)B2O[C@@H]3C[C@@H]4C[C@@H](C4(C)C)[C@]3(C)O2)cc1` [D.3.91]: the IC50 in assay [1] is under 10 nM. For the same compound, in assay [2], the EC50 is under 200 nM.

In the case of `CC(C)C[C@H](NC(=O)[C@H](CCCNC(=N)N[N+](=O)[O-])NC(=O)/C=C/c1ccc(Br)cc1)B1O[C@@H]2C[C@@H]3C[C@@H](C3(C)C)[C@]2(C)O1` [D.3.92, (E)-3-(4-Bromophenyl)acrylamide,N-[(1S)-1-[[[(1R)-1-[(3aS,4S,6S,7aR)-hexahydro-3a,5,5-trimethyl-4,6-methano-1,3,2-benzodioxaborol-2-yl]-3-methylbutyl]amino]carbonyl]-4-[[imino(nitroamino)methyl]amino]butyl]], in assay [1], the IC50 is under 10 nM. Besides, the EC50 in assay [2] was under 200 nM.

`COc1ccc2cc([C@H](C)C(=O)N[C@@H](CCCNC(=N)N[N+](=O)[O-])C(=O)N[C@@H](CC(C)C)B3O[C@@H]4C[C@@H]5C[C@@H](C5(C)C)[C@]4(C)O3)ccc2c1` [D.3.93, (2S)-2-(6-Methoxynaphthalen-2-yl)-propanamide,N-[(1S)-1-[[[(1R)-1-[(3aS,4S,6S,7aR)-hexahydro-3a,5,5-trimethyl-4,6-methano-1,3,2-benzodioxaborol-2-yl]-3-methylbutyl]amino]carbonyl]-4-[[imino(nitroamino)methyl]amino]butyl]] displayed a half-maximal inhibitory concentration (IC50) in assay [1] of under 10 nM. The half-maximal effective concentration (EC50) in assay [2] is under 200 nM.

`COc1ccc(C(=O)N[C@@H](CCCNC(=N)N[N+](=O)[O-])C(=O)N[C@@H](CC(C)C)B2O[C@@H]3C[C@@H]4C[C@@H](C4(C)C)[C@]3(C)O2)cc1F` [D.3.94, 3-Fluoro-4-methoxybenzamide,N-[(1S)-1-[[[(1R)-1-[(3aS,4S,6S,7aR)-hexahydro-3a,5,5-trimethyl-4,6-methano-1,3,2-benzodioxaborol-2-yl]-3-methylbutyl]amino]carbonyl]-4-[[imino(nitroamino)methyl]amino]butyl]] registered an IC50 in assay [1] of under 10 nM. In assay [2], the EC50 was under 200 nM.

In assay [1], `CCCCCC/C=C/C(=O)N[C@@H](CCCNC(=N)N[N+](=O)[O-])C(=O)N[C@@H](CC(C)C)B1O[C@@H]2C[C@@H]3C[C@@H](C3(C)C)[C@]2(C)O1` [D.3.96, Non-2-enoic acid amide,N-[(1S)-1-[[[(1R)-1-[(3aS,4S,6S,7aR)-hexahydro-3a,5,5-trimethyl-4,6-methano-1,3,2-benzodioxaborol-2-yl]-3-methylbutyl]amino]carbonyl]-4-[[imino(nitroamino)methyl]amino]butyl]] displayed an IC50 of under 10 nM. Further, in assay [2], the EC50 is under 200 nM.

In assay [1], `CC(C)C[C@H](NC(=O)[C@H](CCCNC(=N)N[N+](=O)[O-])NC(=O)/C=C/c1ccc2ccccc2c1)B1O[C@@H]2C[C@@H]3C[C@@H](C3(C)C)[C@]2(C)O1` [D.3.97, (E)-3-(Naphthalen-2-yl)acrylamide,N-[(1S)-1-[[[(1R)-1-[(3aS,4S,6S,7aR)-hexahydro-3a,5,5-trimethyl-4,6-methano-1,3,2-benzodioxaborol-2-yl]-3-methylbutyl]amino]carbonyl]-4-[[imino(nitroamino)methyl]amino]butyl]] registered an IC50 of under 10 nM. Besides, in assay [2], the 50% effective concentration (EC50) was under 200 nM.

The compound `CCCCCCCCCCCCCC(=O)N[C@@H](CCCNC(=N)N[N+](=O)[O-])C(=O)N[C@@H](CC(C)C)B1O[C@@H]2C[C@@H]3C[C@@H](C3(C)C)[C@]2(C)O1` [D.3.102, Tetradecanamide,N-[(1S)-1-[[[(1R)-1-[(3aS,4S,6S,7aR)-hexahydro-3a,5,5-trimethyl-4,6-methano-1,3,2-benzodioxaborol-2-yl]-3-methylbutyl]amino]carbonyl]-4-[[imino(nitroamino)methyl]amino]butyl]] returned an IC50 in assay [1] of under 10 nM. The EC50 in assay [2] lay in the range of 200 to 2000 nM.
